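Results reflect a 48-hour exposure of cells in 96-well plates to compound at five concentrations. The concentration for full growth arrest is given as TGI.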
Experiments:
Assay in all cases: growth of human tumour cells (NCI), 48 h
CAKI-1 renal = tested on: CAKI-1 renal
T-47D breast = tested on: T-47D breast
SR leukemia = tested on: SR leukemia
SF-295 CNS = tested on: SF-295 CNS
OVCAR-8 ovarian = tested on: OVCAR-8 ovarian
DU-145 prostate = tested on: DU-145 prostate
OVCAR-3 ovarian = tested on: OVCAR-3 ovarian
SN12C renal = tested on: SN12C renal
K-562 leukemia = tested on: K-562 leukemia
PC-3 prostate = tested on: PC-3 prostate

Measured: TGI

CCn1c(SCC(=O)NNC(=S)NC)nc2ccccc2c1=O
> 100 µM: T-47D breast | SR leukemia | SF-295 CNS | OVCAR-8 ovarian | DU-145 prostate | OVCAR-3 ovarian | SN12C renal | K-562 leukemia | PC-3 prostate
44.2 µM: CAKI-1 renal

COc1cc2nc(-c3cccs3)[nH]c(=O)c2cc1OC
58.4 µM: SR leukemia
> 100 µM: CAKI-1 renal | T-47D breast | SF-295 CNS | OVCAR-8 ovarian | DU-145 prostate | OVCAR-3 ovarian | SN12C renal | K-562 leukemia | PC-3 prostate

CNc1ncc(-c2nnnn2-c2ccccc2)c(CN(C)C)n1
> 100 µM: CAKI-1 renal | T-47D breast | SR leukemia | SF-295 CNS | OVCAR-8 ovarian | DU-145 prostate | OVCAR-3 ovarian | SN12C renal | K-562 leukemia | PC-3 prostate

O=c1[nH]cnc2c1nnn2CCCCCCCCCCCCn1nnc2c(=O)[nH]cnc21
> 86.8 µM: OVCAR-8 ovarian
> 100 µM: CAKI-1 renal | T-47D breast | SR leukemia | DU-145 prostate | OVCAR-3 ovarian | SN12C renal | K-562 leukemia | PC-3 prostate
48.4 µM: SF-295 CNS

CN(C)c1cccc(NC2=NCCO2)c1
> 100 µM: CAKI-1 renal | T-47D breast | SF-295 CNS | OVCAR-8 ovarian | DU-145 prostate | OVCAR-3 ovarian | SN12C renal | K-562 leukemia | PC-3 prostate
99.6 µM: SR leukemia

C[Si](C)(C)C1=C([Si](C)(C)C)C(Cl)(Cl)C1=O
7.14 µM: CAKI-1 renal
8.15 µM: OVCAR-3 ovarian
23.3 µM: DU-145 prostate
5.46 µM: SR leukemia
15.8 µM: SN12C renal
9.78 µM: OVCAR-8 ovarian
6.35 µM: T-47D breast
2.88 µM: K-562 leukemia
12.9 µM: PC-3 prostate
22.3 µM: SF-295 CNS

CC(=O)N1CCn2c1nc1cc(Cl)ccc12
51.4 µM: T-47D breast
> 100 µM: CAKI-1 renal | SR leukemia | SF-295 CNS | OVCAR-8 ovarian | DU-145 prostate | OVCAR-3 ovarian | SN12C renal | K-562 leukemia | PC-3 prostate
